Measurements as given in patent US20230085307A1, “PYRIDAZINONE COMPOUND AND HERBICIDE” (NISSAN CHEMICAL CORPORATION, priority 2019, published 2023).

Key:
false cleavers = assay: Test Example 4: herbicidal effect by soil treatment (Table 19, symbol Q); format: in vivo, false cleavers (Galium spurium); settings: amount of applied herbicide 214 g/ha
Method in brief: (§1)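 Three weeks of greenhouse growth at 25° C. to 30° C. followed a uniform surface spray of water-diluted emulsion at a predetermined herbicide amount. Seeds had been sown beforehand under about 1.5 cm of sterilized diluvial soil. Grading followed criteria set out in an earlier test.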

green foxtail = assay: Test Example 5: herbicidal effect by foliage application, plastic box (Table 20, symbol G); format: in vivo, green foxtail (Setaria viridis); settings: foliage application, 214 g/ha, three weeks after application
Method in brief: (§2)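 Plants sown in sterilized diluvial soil and grown 14 days in a greenhouse at 25° C to 30° C, then sprayed on the foliage with the compound's emulsion diluted in water to a predetermined herbicide amount. Injury to weeds and crops scored three weeks after application on a visual rating scale.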

blackgrass [1] = assay: Test Example 4: herbicidal effect by soil treatment (Table 19, symbol J); format: in vivo, blackgrass (Alopecurus myosuroides); settings: amount of applied herbicide 214 g/ha
Method in brief: as §1

oval-leafed pondweed = assay: Test Example 2: herbicidal activity, application during weed generation under submerged conditions (Table 17, symbol C); format: in vivo, oval-leafed pondweed (Monochoria vaginalis); settings: AAH 214 g/ha; application during weed generation, submerged conditions
Method in brief: (§3)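 Wagner pot, alluvial soil, 4 cm flood; mixed sowing of all species; greenhouse 25° C.–30° C. Emulsifiable formulation, water-diluted to predetermined dose, applied to paddy water at 1–2 leaf stage. Effect rated at 3 wk using the earlier test's scoring criteria.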

lambsquarters = assay: Test Example 4: herbicidal effect by soil treatment (Table 19, symbol O); format: in vivo, lambsquarters (Chenopodium album); settings: amount of applied herbicide 214 g/ha
Method in brief: as §1

velvetleaf [2] = assay: Test Example 5: herbicidal effect by foliage application, plastic box (Table 20, symbol M); format: in vivo, velvetleaf (Abutilon theophrasti); settings: foliage application, 214 g/ha, three weeks after application
Method in brief: as §2

late watergrass [3] = assay: Test Example 1: herbicidal activity, application before weed generation under submerged conditions (Table 16, symbol A); format: in vivo, late watergrass (Echinochloa oryzicola); settings: amount of applied herbicide 214 g/ha
Method in brief: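 Submerged Wagner pots (alluvial soil, 4 cm water) sown with weed seeds and planted with 2.5-leaf rice seedlings; emulsifiable concentrate diluted in water applied to water surface on sowing day. Held in greenhouse at 25-30 °C; injury scored 0-5 by herbicidal rate after three weeks.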

late watergrass [4] = assay: Test Example 2: herbicidal activity, application during weed generation under submerged conditions (Table 17, symbol A); format: in vivo, late watergrass (Echinochloa oryzicola); settings: AAH 214 g/ha; application during weed generation, submerged conditions
Method in brief: as §3

Italian ryegrass = assay: Test Example 5: herbicidal effect by foliage application, plastic box (Table 20, symbol K); format: in vivo, Italian ryegrass (Lolium multiflorum); settings: foliage application, 214 g/ha, three weeks after application
Method in brief: as §2

barnyard grass [5] = assay: Test Example 4: herbicidal effect by soil treatment (Table 19, symbol H); format: in vivo, barnyard grass (Echinochloa crus-galli); settings: amount of applied herbicide 214 g/ha
Method in brief: as §1

barnyard grass [6] = assay: Test Example 3: herbicidal effect by foliage application, Wagner pot (Table 18, symbol H); format: in vivo, barnyard grass (Echinochloa crus-galli); settings: 214 g/ha
Method in brief: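 Plants were sown in alluvial soil held under 0.1–0.5 cm standing water and grown 14 days in a greenhouse at 25–30 °C. An emulsifiable formulation, water-diluted to the set dose, was then sprayed onto the foliage, and effects were scored three weeks later using previously defined criteria.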

southern crabgrass = assay: Test Example 4: herbicidal effect by soil treatment (Table 19, symbol F); format: in vivo, southern crabgrass (Digitaria ciliaris); settings: amount of applied herbicide 214 g/ha
Method in brief: as §1

barnyard grass [7] = assay: Test Example 5: herbicidal effect by foliage application, plastic box (Table 20, symbol H); format: in vivo, barnyard grass (Echinochloa crus-galli); settings: foliage application, 214 g/ha, three weeks after application
Method in brief: as §2

persian speedwell = assay: Test Example 4: herbicidal effect by soil treatment (Table 19, symbol R); format: in vivo, Persian speedwell (Veronica persica); settings: amount of applied herbicide 214 g/ha
Method in brief: as §1

blackgrass [8] = assay: Test Example 5: herbicidal effect by foliage application, plastic box (Table 20, symbol J); format: in vivo, blackgrass (Alopecurus myosuroides); settings: foliage application, 214 g/ha, three weeks after application
Method in brief: as §2

chickweed = assay: Test Example 5: herbicidal effect by foliage application, plastic box (Table 20, symbol P); format: in vivo, common chickweed (Stellaria media); settings: foliage application, 214 g/ha, three weeks after application
Method in brief: as §2

velvetleaf [9] = assay: Test Example 4: herbicidal effect by soil treatment (Table 19, symbol M); format: in vivo, velvetleaf (Abutilon theophrasti); settings: amount of applied herbicide 214 g/ha
Method in brief: as §1

## COc1ccc2c(-c3c(O)c(C)nn(C)c3=O)c(-c3ccccc3OC)sc2c1 [Compound No. 3-065, 5-hydroxy-4-(6-methoxy-2-(2-methoxyphenyl)benzo[b]thiophen-3-yl)-2,6-dimethylpyridazin-3(2H)-one]
False cleavers
  Q: false cleavers, herbicidal effect grade: 4 (Herbicidal rate of 70% or more and less than 90%)
Green foxtail
  G: green foxtail, herbicidal effect grade: 5 (Herbicidal rate of 90% or more (almost completely withered))
Blackgrass [1]
  J: blackgrass, herbicidal effect grade: 3 (Herbicidal rate of 40% or more and less than 70%)
oval-leafed pondweed
  herbicidal effect rating, C: oval-leafed pondweed: 3 (Herbicidal rate of 40% or more and less than 70%)
lambsquarters
  O: lambsquarters, herbicidal effect grade: 4 (Herbicidal rate of 70% or more and less than 90%)
Velvetleaf [2]
  M: velvetleaf, herbicidal effect grade: 5 (Herbicidal rate of 90% or more (almost completely withered))
Late watergrass [3]
  Herbicidal effect, A: late watergrass: 1 (Herbicidal rate of 5% or more and less than 20%)
Late watergrass [4]
  herbicidal effect rating, A: late watergrass: 0 (Herbicidal rate of 5% or less (almost no effect))
Italian ryegrass
  K: Italian ryegrass, herbicidal effect grade: 4 (Herbicidal rate of 70% or more and less than 90%)
Barnyard grass [5]
  H: barnyard grass, herbicidal effect grade: 5 (Herbicidal rate of 90% or more (almost completely withered))
Barnyard grass [6]
  herbicidal effect on barnyard grass (H): 5 (Herbicidal rate of 90% or more (almost completely withered))
Southern crabgrass
  F: southern crabgrass, herbicidal effect grade: 3 (Herbicidal rate of 40% or more and less than 70%)
Barnyard grass [7]
  H: barnyard grass, herbicidal effect grade: 5 (Herbicidal rate of 90% or more (almost completely withered))
Persian speedwell
  R: persian speedwell, herbicidal effect grade: 5 (Herbicidal rate of 90% or more (almost completely withered))
Blackgrass [8]
  J: blackgrass, herbicidal effect grade: 5 (Herbicidal rate of 90% or more (almost completely withered))
chickweed
  P: chickweed, herbicidal effect grade: 5 (Herbicidal rate of 90% or more (almost completely withered))
Velvetleaf [9]
  M: velvetleaf, herbicidal effect grade: 0 (Herbicidal rate of 5% or less (almost no effect))
